Columns and labels:
[1] = system: group II mGlu receptors (mGlu2 and mGlu3); conditions: cited from earlier work
human mGlu3 = target: T1, human mGlu3 (Homo sapiens, UniProt Q14832); experiment: mGlu GIRK cell-based thallium flux assay, human mGlu3; conditions: HEK-293 cells co-expressing human mGlu3 and GIRK, EC80 glutamate, single experiment
T1 construct: expressed in transfected cells; host or cells: HEK-293 stably co-expressing GIRK channels
Procedure: (§1) Human embryonic kidney (HEK-293) cell lines stably co-expressing human or rat mGlu2 and G protein-coupled inwardly rectifying potassium (GIRK) channels, or human mGlu3 and GIRK, were used for in vitro evaluation of compound activity in thallium flux assay using a fluorescent thallium indicator dye.
(§2) The day before the assay, GIRK cells co-expressing human mGlu3, human or rat mGlu2, as described above, were plated in black-walled, clear-bottomed, amine-coated 384-well plates at a density of 15,000 cells/[…]/well in the assay medium (glutamine-depleted basal DMEM supplemented with 10% dialyzed FBS, 20 mM HEPES, 1 mM sodium pyruvate). Cells were incubated at 37° C. in the presence of 5% CO2. The next day, assay buffer (Hanks balanced salt solution, 20 mM HEPES, 4.16 mM sodium bicarbonate, pH 7.2) was prepared to dilute compounds and Thallos AM fluorescent dye solution. The 2× Thallos dye solution (final concentration 0.34 μM to the cells) was prepared by mixing the dye stock (2.97 mM in DMSO) to 1:1 with 10% pluronic acid before adding to the assay buffer. Cells were washed with assay buffer using a microplate washer to remove the medium, resulting in 20 μL of buffer remaining in each well. […] During the cell dye loading incubation period, a 10-point concentration serial dilution of compound was created from a 10 mM DMSO compound stock by performing a 1:3 serial dilution in DMSO using the Bravo liquid handler. The 2× compound plate was generated by transferring 0.24 μL of the diluted compound in each well to a daughter plate using an Echo acoustic liquid handler. This is further diluted in 40 μL assay buffer, resulting in a range from […] to 1.5 nM final concentration in the assay. The agonist plate (5×) was prepared to include EC80 glutamate concentration (a concentration to elicit 80% of a maximally effective glutamate concentration) in thallium buffer (125 mM sodium bicarbonate, 1 mM magnesium sulfate, 1.8 mM calcium sulfate, 5 mM glucose, 10 mM HEPES, pH 7.2, 12.5 mM thallium sulfate).
(§3) After dye-loading, cell plates were washed with assay buffer to remove excess extracellular dye using a microplate washer, resulting in 20 μL of buffer remaining in each well. After a ten-minute equilibration period, cell, compound and agonist plates were loaded into a Hamamatsu μCell kinetic imaging plate reader equipped with liquid handler to monitor fluorescence changes at 480 nm excitation and 540 nm emission settings. Briefly, after collection of baseline fluorescence, 20 μL of compound was added and incubated for two minutes and twenty seconds. This is immediately followed by adding 10 μL of glutamate-thallium buffer to the wells containing compound. The fluorescent signal was monitored an additional 2.5 minutes after the glutamate addition. Multiple reference wells containing no compound received either no glutamate (for a baseline reference), EC80 glutamate, or ECmax glutamate (for normalization to maximum response). […] Each compound concentration series occurred one time in each plate, and replicates from two or three plates were used in each experimental run. Thallium solutions were handled and disposed of according to guidelines from the Vanderbilt University Chemical Safety department.
(§4) Data were normalized using a static ratio function (F/F0) by dividing every fluorescent measurement by the initial fluorescent value for the corresponding well. The increase in signal resulting from the glutamate/thallium addition of the second add was measured by determining the slope from 3 seconds to 13 seconds after the addition. The average of all baseline slopes (no compound, no glutamate) was determined and this value was subtracted from all other slope values. The average of all ECmax slopes was determined and this value was used to normalize the baseline-corrected slopes to a percent max value (% Emax).

human mGlu2 = target: T2, human mGlu2 (Homo sapiens, UniProt Q14416); experiment: mGlu GIRK cell-based thallium flux assay, human mGlu2; conditions: HEK-293 cells co-expressing human mGlu2 and GIRK, EC80 glutamate, single experiment
T2 construct: expressed in transfected cells; host or cells: HEK-293 stably co-expressing GIRK channels
Procedure: as §1, §2, §3, §4

T1 sequence (Q14832 23-879): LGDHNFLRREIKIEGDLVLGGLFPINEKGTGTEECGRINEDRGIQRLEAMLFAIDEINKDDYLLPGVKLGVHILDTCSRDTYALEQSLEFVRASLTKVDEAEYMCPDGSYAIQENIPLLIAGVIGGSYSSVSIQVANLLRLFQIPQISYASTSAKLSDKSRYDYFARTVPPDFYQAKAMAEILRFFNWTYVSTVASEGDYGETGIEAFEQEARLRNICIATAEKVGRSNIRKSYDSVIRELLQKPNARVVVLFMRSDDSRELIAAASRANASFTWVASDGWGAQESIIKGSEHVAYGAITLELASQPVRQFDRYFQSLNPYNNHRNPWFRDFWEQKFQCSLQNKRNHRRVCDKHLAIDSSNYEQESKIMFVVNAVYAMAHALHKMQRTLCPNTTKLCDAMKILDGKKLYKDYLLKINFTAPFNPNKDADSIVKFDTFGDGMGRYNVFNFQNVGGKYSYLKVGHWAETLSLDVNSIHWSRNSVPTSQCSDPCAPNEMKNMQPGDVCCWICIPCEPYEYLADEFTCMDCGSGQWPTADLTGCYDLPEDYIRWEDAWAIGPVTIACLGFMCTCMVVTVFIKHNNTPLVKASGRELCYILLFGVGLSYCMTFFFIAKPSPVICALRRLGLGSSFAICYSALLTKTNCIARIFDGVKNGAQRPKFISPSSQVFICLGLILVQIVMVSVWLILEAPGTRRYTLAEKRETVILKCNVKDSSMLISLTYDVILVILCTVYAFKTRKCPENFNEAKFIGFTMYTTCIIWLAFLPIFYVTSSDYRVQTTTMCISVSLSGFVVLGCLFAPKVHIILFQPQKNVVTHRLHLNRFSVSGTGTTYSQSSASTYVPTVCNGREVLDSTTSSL
T2 sequence (Q14416 19-872): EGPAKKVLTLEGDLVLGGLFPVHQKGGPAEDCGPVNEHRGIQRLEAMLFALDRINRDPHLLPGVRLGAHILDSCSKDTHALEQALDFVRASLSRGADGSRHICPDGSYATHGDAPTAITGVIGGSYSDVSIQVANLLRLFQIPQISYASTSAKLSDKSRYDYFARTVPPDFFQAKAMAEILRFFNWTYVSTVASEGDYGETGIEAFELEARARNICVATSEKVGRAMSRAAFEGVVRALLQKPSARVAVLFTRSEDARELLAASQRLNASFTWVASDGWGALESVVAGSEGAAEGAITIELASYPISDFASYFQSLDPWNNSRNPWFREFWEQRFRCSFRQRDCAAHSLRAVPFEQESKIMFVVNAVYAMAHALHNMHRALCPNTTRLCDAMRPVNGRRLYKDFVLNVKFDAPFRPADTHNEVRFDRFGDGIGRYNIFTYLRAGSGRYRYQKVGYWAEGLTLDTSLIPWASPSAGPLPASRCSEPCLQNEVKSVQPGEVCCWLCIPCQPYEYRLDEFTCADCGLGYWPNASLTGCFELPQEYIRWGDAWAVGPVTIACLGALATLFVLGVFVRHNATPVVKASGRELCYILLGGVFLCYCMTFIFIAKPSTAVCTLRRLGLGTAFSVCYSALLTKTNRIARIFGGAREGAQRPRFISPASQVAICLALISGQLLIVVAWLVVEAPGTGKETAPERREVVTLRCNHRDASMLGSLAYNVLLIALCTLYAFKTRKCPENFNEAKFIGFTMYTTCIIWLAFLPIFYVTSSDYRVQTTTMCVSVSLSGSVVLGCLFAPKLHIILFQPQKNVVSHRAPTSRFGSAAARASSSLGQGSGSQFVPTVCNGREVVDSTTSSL

| SMILES | IC50 (human mGlu3) [nM] | IC50 (human mGlu2) [nM] | Human mGlu3 GIRK IC50 (nM) (human mGlu3) | further results |
| --- | --- | --- | --- | --- |
| CCCCCCCOC(=O)[C@@]1(F)[C@@H]2C[C@@H](OCc3ccc(Cl)c(Cl)c3)[C@@](N)(C(=O)O)[C@@H]21 [BCI-838] | – | – | – | Dutch APP transgene-associated learning and memory impairment ([1]; three months of treatment): reversed; anxiolytic effects ([1]; three months of treatment): anxiolytic effects; levels of monomeric and oAβ peptides in the hippocampus and cortex ([1]; three months of treatment, two AD mouse models): decreased; hippocampal progenitor cell proliferation ([1]; wild-type and Alzheimer's diseased mice, 3 months): stimulated |
| CSc1ncc(-c2cc(-c3ccc(F)cc3F)cc3c2CNC3=O)cn1 [Compound 39, 6-(2,4-difluorophenyl)-4-(2-(methylthio)pyrimidin-5-yl)isoindolin-1-one] | 3960 | 555 | – | – |
| O=C1NCc2c1cc(-c1ccc(F)cc1F)cc2-c1ccc(=O)n(C(F)F)c1 [Compound 40, 4-(1-(difluoromethyl)-6-oxo-1,6-dihydropyridin-3-yl)-6-(2,4-difluorophenyl)isoindolin-1-one] | – | 66 | Inactive | – |
| Cc1nn(CC(C)(C)O)c(C)c1-c1cc(-c2ccc(F)cc2F)cc2c1CNC2=O [Compound 41, 6-(2,4-difluorophenyl)-4-(1-(2-hydroxy-2-methylpropyl)-3,5-dimethyl-1H-pyrazol-4-yl)isoindolin-1-one] | > 10000 | 435 | – | – |
| CC(C)Oc1cc(-c2cc3c(c(-c4cnsc4)c2)CNC3=O)ccc1C#N [Compound 62, 2-isopropoxy-4-(7-(isothiazol-4-yl)-3-oxoisoindolin-5-yl)benzonitrile] | > 10000 | – | – | Human mGlu2 GIRK IC50 (nM) (human mGlu2): Inactive |
| O=C1NCc2c1cc(-c1ccc(F)cc1F)cc2-c1cnn(C2CCOC2)c1 (stereo not shown) [Compound 63, 6-(2,4-difluorophenyl)-4-(1-(tetrahydrofuran-3-yl)-1H-pyrazol-4-yl)isoindolin-1-one] | – | 203 | Inactive | – |
| O=C1NCc2c1cc(-c1ccc(F)cc1F)cc2-c1ccc[nH]c1=O [Compound 64, 6-(2,4-difluorophenyl)-4-(2-oxo-1,2-dihydropyridin-3-yl)isoindolin-1-one] | – | 298 | Inactive | – |
| O=C1NCc2c1cc(-c1ccc(F)cc1F)cc2-c1cccnc1N1CCCC1 [Compound 66, 6-(2,4-difluorophenyl)-4-(2-(pyrrolidin-1-yl)pyridin-3-yl)isoindolin-1-one] | > 10000 | 528 | – | – |
| Cc1nc(F)ccc1-c1cc(-c2ccc(F)cc2F)cc2c1CNC2=O [Compound 72, 6-(2,4-difluorophenyl)-4-(6-fluoro-2-methylpyridin-3-yl)isoindolin-1-one] | > 10000 | 104 | – | – |
| O=C1NCc2c1cc(-c1ccc(F)cc1F)cc2-c1ccc(F)nc1F [Compound 73, 6-(2,4-difluorophenyl)-4-(2,6-difluoropyridin-3-yl)isoindolin-1-one] | > 10000 | 157 | – | – |
| CC(C)Oc1ncccc1-c1cc(-c2ccc(F)cc2F)cc2c1CNC2=O [Compound 75, 6-(2,4-difluorophenyl)-4-(2-isopropoxypyridin-3-yl)isoindolin-1-one] | > 10000 | 865 | – | – |
| CC(C)Cn1nccc1-c1cc(-c2ccc(F)cc2F)cc2c1CNC2=O [Compound 76, 6-(2,4-difluorophenyl)-4-(1-isobutyl-1H-pyrazol-5-yl)isoindolin-1-one] | > 10000 | 179 | – | – |
| Cn1nc(C(F)(F)F)cc1-c1cc(-c2ccc(F)cc2F)cc2c1CNC2=O [Compound 78, 6-(2,4-difluorophenyl)-4-(1-methyl-3-(trifluoromethyl)-1H-pyrazol-5-yl)isoindolin-1-one] | – | 204 | Inactive | – |
| CC(C)n1nccc1-c1cc(C2=CCOCC2)cc2c1CNC2=O [Compound 86, 6-(3,6-dihydro-2H-pyran-4-yl)-4-(1-isopropyl-1H-pyrazol-5-yl)isoindolin-1-one] | – | 175 | Inactive | – |
| CC(C)n1nccc1-c1cc(C2=CCC3(CC2)OCCO3)cc2c1CNC2=O [Compound 87, 4-(1-isopropyl-1H-pyrazol-5-yl)-6-(1,4-dioxaspiro[4.5]dec-7-en-8-yl)isoindolin-1-one] | – | 3810 | Inactive | – |
| O=C1NCc2c1cc(-c1ccc(F)cc1F)cc2N1CCn2nccc21 [Compound A2, 6-(2,4-difluorophenyl)-4-(2,3-dihydro-1H-imidazo[1,2-b]pyrazol-1-yl)isoindolin-1-one] | – | 218 | Inactive | – |
| O=C1NCc2c1cc(-c1ccc(F)cc1F)cc2N1CCS(=O)(=O)CC1 [Compound A3, 6-(2,4-difluorophenyl)-4-(1,1-dioxidothiomorpholino)isoindolin-1-one] | – | 2970 | Inactive | – |
| O=C1NCc2c1cc(-c1ccc(F)cc1F)cc2N1CCOCC1 [Compound A4, 6-(2,4-difluorophenyl)-4-morpholinoisoindolin-1-one] | > 10000 | 380 | – | – |
| CC1(C)CN(c2cc(-c3ccc(F)cc3F)cc3c2CNC3=O)CC(C)(C)O1 [Compound A6, 6-(2,4-difluorophenyl)-4-(2,2,6,6-tetramethylmorpholino)isoindolin-1-one] | – | 2090 | Inactive | – |
| CC1(C#N)CCN(c2cc(-c3ccc(F)cc3F)cc3c2CNC3=O)C1 (stereo not shown) [Compound A7, 1-(6-(2,4-difluorophenyl)-1-oxoisoindolin-4-yl)-3-methylpyrrolidine-3-carbonitrile] | – | 361 | Inactive | – |
| CC(C)(O)C1CCN(c2cc(-c3ccc(F)cc3F)cc3c2CNC3=O)C1 (stereo not shown) [Compound A8, 6-(2,4-difluorophenyl)-4-(3-(2-hydroxypropan-2-yl)pyrrolidin-1-yl)isoindolin-1-one] | – | 650 | Inactive | – |
| N#CC1CCCN(c2cc(-c3ccc(F)cc3F)cc3c2CNC3=O)C1 (stereo not shown) [Compound A10, 1-(6-(2,4-difluorophenyl)-1-oxoisoindolin-4-yl)piperidine-3-carbonitrile] | > 10000 | 386 | – | – |
| CC1(C)CCN(c2cc(-c3ccc(F)cc3F)cc3c2CNC3=O)CC1 [Compound A16, 6-(2,4-difluorophenyl)-4-(4,4-dimethylpiperidin-1-yl)isoindolin-1-one] | > 10000 | 3950 | – | – |
| COC1CCCN(c2cc(-c3ccc(F)cc3F)cc3c2CNC3=O)C1 (stereo not shown) [Compound A18, 6-(2,4-difluorophenyl)-4-(3-methoxypiperidin-1-yl)isoindolin-1-one] | 9870 | 490 | – | – |
| O=C1NCc2c(CN3CCSCC3)cc(-c3ccc(F)cc3F)cc21 [Compound B1, 6-(2,4-difluorophenyl)-4-(thiomorpholinomethyl)isoindolin-1-one] | 4620 | 180 | – | – |
| O=C1NCc2c(CN3CCOCC3)cc(-c3ccc(F)cc3F)cc21 [Compound B2, 6-(2,4-difluorophenyl)-4-(morpholinomethyl)isoindolin-1-one] | > 10000 | 182 | – | – |
| CN1CCCC(c2cc(-c3ccc(F)cc3F)cc3c2CNC3=O)C1 (stereo not shown) [Compound B3, 6-(2,4-difluorophenyl)-4-(1-methylpiperidin-3-yl)isoindolin-1-one] | > 10000 | 1490 | – | – |
| O=C1NCc2c1cc(-c1ccc(F)cc1F)cc2C1CCNC1 (stereo not shown) [Compound B6, 6-(2,4-difluorophenyl)-4-(pyrrolidin-3-yl)isoindolin-1-one] | > 10000 | > 10000 | – | – |

Reference: patent publication US20260226019A1, “NEGATIVE ALLOSTERIC MODULATORS OF METABOTROPIC GLUTAMATE RECEPTOR 2” (Vanderbilt University, priority 2023, published 2026)
